Experiment [1] has as its system Acinetobacter baumannii ATCC17961. The experiment can be described thus: Antimicrobial susceptibility testing, 90% growth inhibitory concentration (IC90) determination. The class given is cell-based. Particulars: 90% growth inhibitory concentration, Acinetobacter baumannii ATCC17961, Iso-Sensitest broth, OD 600 nm over 16 h; read-out: ATCC17961 IC90. The essentials:
(§1)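 Twofold dilutions (e.g. 50 to 0.097 μM final) in Iso-Sensitest broth, inoculum ~5×10^(5) CFU/ml, incubated at 35+2 °C. OD600 read every 20 min over 16 h; IC90 taken from growth inhibition during logarithmic phase.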

For experiment [2], the system named is Acinetobacter baumannii ATCC 17978. The experiment is described as above. Format: cell-based. Particulars: Acinetobacter baumannii ATCC17978, Iso-Sensitest broth, OD 600 nm over 16 h. The essentials:
as §1

Counter-ions that a name gives are not always drawn.

For `CCc1cc(Nc2nccn3c(-c4ccc(OC)c(F)c4F)cnc23)ccc1C(=O)N[C@@H]1CCCC[C@@H]1N` (racemic) [Example 8, rac-N-((1R,2S)-2-aminocyclohexyl)-4-((3-(2,3-difluoro-4-methoxyphenyl)imidazo[1,2-a]pyrazin-8-yl)amino)-2-ethylbenzamide], the IC90 (in general, the point of the concentration-response curve where the effect stands at 90%) in experiment [1] stood at 852 nM; in experiment [2], 850 nM.
For `CCc1cc(Nc2nccn3c(-c4ccc(OC)c(F)c4F)cnc23)ccc1C(=O)NC1CCC1N` (stereo not shown) [Example 39, N-(2-aminocyclobutyl)-4-[[3-(2,3-difluoro-4-methoxyphenyl)imidazo[1,2-a]pyrazin-8-yl]amino]-2-ethylbenzamide], in that order: 288 nM and 290 nM.
For `CCc1cc(Nc2nccn3c(-c4ccc(OC)c(F)c4F)cnc23)ccc1C(=O)N[C@H]1CC[C@@H](NC(=O)[C@@H](N)CCCNC(=N)N)CC1` [Example 5, N-[4-[[(2S)-2-amino-5-guanidino-pentanoyl]amino]cyclo-hexyl]-4-[[3-(2,3-difluoro-4-methoxy-phenyl)imidazo[1,2-a]pyrazin-8-yl]amino]-2-ethyl-benzamide trifluoroacetate], in that order: 176 nM and 180 nM.
As to `CCc1cc(Nc2nccn3c(-c4ccc(OC)c(F)c4F)cnc23)ccc1C(=O)NC1(CN)CC1` [Example 4, N-(1-(aminomethyl)cyclopropyl)-4-((3-(2,3-difluoro-4-methoxyphenyl)imidazo[1,2-a]pyrazin-8-yl)amino)-2-ethylbenzamide hydrochloride], the IC90 in experiment [1] came out at 274 nM; in experiment [2], 320 nM.
For `CCc1cc(Nc2nccn3c(-c4ccc(OC)c(F)c4F)cnc23)ccc1C(=O)NC1CNC1` [Example 12, N-(azetidin-3-yl)-4-[[3-(2,3-difluoro-4-methoxy-phenyl)imidazo[1,2-a]pyrazin-8-yl]amino]-2-ethyl-benzamide] the same measures were 230 nM and 230 nM.
For `COc1ccc(-c2cnc3c(Nc4ccc(C(=O)NC5CCC(NC(=O)[C@@H]6C[C@@H](O)CN6)C5)c(C)c4)nccn23)c(F)c1F` (mixture of isomers) [Example 36, rac-(2R,4S)-N-[3-[[4-[[3-(2,3-difluoro-4-methoxyphenyl)imidazo[1,2-a]pyrazin-8-yl]amino]-2-methylbenzoyl]amino]cyclopentyl]-4-hydroxypyrrolidine-2-carboxamide], the IC90 in experiment [1] and in experiment [2] was 72 nM throughout.
In the case of `CCc1cc(Nc2nccn3c(-c4ccc(OC)c(F)c4F)cnc23)ccc1C(=O)NC1(CNC(C)=N)CC1` [Example 19, 4-[[3-(2,3-difluoro-4-methoxyphenyl)imidazo[1,2-a]pyrazin-8-yl]amino]-N-[1-[(ethanimidoylamino)methyl]cyclopropyl]-2-ethylbenzamide], the IC90 amounted to 154 nM in experiment [1] and 150 nM in experiment [2].
For `COc1ccc(-c2cnc3c(Nc4ccc(C(=O)N[C@H]5CC[C@@H](N)CC5)c(C)c4)nccn23)c(F)c1F` [Example 31, N-(4-aminocyclohexyl)-4-[[3-(2,3-difluoro-4-methoxyphenyl)imidazo[1,2-a]pyrazin-8-yl]amino]-2-methylbenzamide], in that order: 53 nM and 53 nM.
For `CCc1cc(Nc2nccn3c(-c4ccc(OC)c(F)c4F)cnc23)ccc1C(=O)NC1(CNC(=N)N)CC1` [Example 18, N-[1-(carbamimidamidomethyl)cyclopropyl]-4-[[3-(2,3-difluoro-4-methoxyphenyl)imidazo[1,2-a]pyrazin-8-yl]amino]-2-ethylbenzamide] the same measures were 83 nM and 84 nM.
For `COc1ccc(-c2cnc3c(Nc4ccc(C(=O)NC5CCN(C(=O)[C@@H]6C[C@@H](O)CN6)CC5)c(C)c4)nccn23)c(F)c1F` [Example 32, 4-[[3-(2,3-difluoro-4-methoxyphenyl)imidazo[1,2-a]pyrazin-8-yl]amino]-N-[1-[(2S,4R)-4-hydroxypyrroIidine-2-carbonyl]piperidin-4-yl]-2-methylbenzamide], in that order: 66 nM and 66 nM.
Regarding `COc1ccc(-c2cnc3c(Nc4ccc(C(=O)N[C@H]5CC[C@@H](NC(=C(C)C)N(C)C)CC5)c(C)c4)nccn23)c(F)c1F` [Example 33, 4-[[3-(2,3-difluoro-4-methoxyphenyl)imidazo[1,2-a]pyrazin-8-yl]amino]-N-[4-[[1-(dimethylamino)-2-methylprop-1-enyl]amino]cyclohexyl]-2-methylbenzamide;formic acid], the IC90 in experiment [1] and in experiment [2] was 75 nM each time.

Source of the values: patent publication US20230013602A1, “NOVEL IMIDAZOPYRAZINE DERIVATIVES” (Hoffmann-La Roche Inc., priority 2018, published 2023).
